From patent US20150217046A1, “DOSING REGIMENS FOR SUBCUTANEOUSLY INFUSIBLE ACIDIC COMPOSITIONS” (SynAgile Corporation, priority 2012, published 2015)
Like-named read-outs stand apart in the source and are kept apart here.

What was measured:
[1] = Infusion site reactions, intermittent subcutaneous infusion of 100 and 200 mg/mL LDEE pH 3.7 (Example 4); conditions: pH 3.7, intermittent s.c., 200 mg/mL, 16 hrs
From the text: Each infusion site was spaced a minimum of 2 inches (5 cm) apart from any other infusion site.

[2] = Infusion site reactions, intermittent subcutaneous infusion of 200 mg/mL LDEE pH 4.5 (Example 2); type: in vivo, minipigs
From the text: Each infusion site was spaced a minimum of 2.5 inches (6.3 cm) apart from any other infusion site.
In all cases, the infusion site reaction constituted a swelling of 0.5-4.0 cm diameter, typically 0.5-1.5 cm.

[3] = minipig A day 1: 90 mg LDEE (100 mg/mL, pH 3.7) s.c. continuous over 8 h, oral Lodosyn
[4] = minipig A day 8: 90 mg LDEE (100 mg/mL, pH 3.7) re-infused at contralateral site over 8 h, pre-infused with 15 units human hyaluronidase
[5] = minipig B day 1: 90 mg LDEE (100 mg/mL, pH 3.7) s.c. continuous over 8 h, oral Lodosyn
[6] = minipig C day 1: 560 mg LDEE (100 mg/mL, pH 3.7) split between 2 sites, s.c. continuous over 8 h, oral Lodosyn
[7] = minipig C day 8: 280 mg LDEE (100 mg/mL, pH 3.7) re-infused at one site, s.c. continuous over 8 h
[8] = minipig D day 1: 560 mg LDEE (100 mg/mL, pH 3.7) split between 2 sites, s.c. continuous over 8 h, oral Lodosyn
[9] = minipig D day 8: 560 mg LDEE (100 mg/mL, pH 3.7) re-infused at the 2 day 1 sites, s.c. continuous over 8 h
[10] = minipig E day 1: 560 mg LDEE (100 mg/mL, pH 3.7) split between 2 sites, s.c. continuous over 8 h, pre-infused with 15 units human hyaluronidase
[11] = minipig F day 1: 560 mg LDEE (100 mg/mL, pH 3.7) split between 2 sites, s.c. continuous over 8 h, pre-infused with 15 units human hyaluronidase
[12] = minipig F day 8: 560 mg LDEE (100 mg/mL, pH 3.7) re-infused at 2 sites over 8 h, pre-infused with 15 units human hyaluronidase

CCOC(=O)[C@@H](N)Cc1ccc(O)c(O)c1 [LDEE, levodopa ethyl ester]
# of Infusion Site Reactions/# of Infusion Sites ([1]; 282 mg, 14 days): 1/4 | # of Infusion Site Reactions/# of Infusion Sites ([1]; 563 mg, 0 hrs): 0/4 | # of Infusion Site Reactions/# of Infusion Sites ([1]; 563 mg, 12 hrs): 0/4 | # of Infusion Site Reactions/# of Infusion Sites ([1]; 563 mg, 24 hrs): 0/4 | # of Infusion Site Reactions/# of Infusion Sites ([1]; 563 mg, 3 days): 3/4 | # of Infusion Site Reactions/# of Infusion Sites ([1]; 563 mg, 7 days): 3/4 | # of Infusion Site Reactions/# of Infusion Sites ([1]; 563 mg, 14 days): 2/4 | Plasma LD, 480 minutes after start of infusion (Average of the 10 minipig/day infusions of Table 10): 7,870 ng/mL | Plasma LD, 480 minutes after start of infusion (minipig A day 1: 90 mg LDEE (100 mg/mL, pH 3.7) s.c. continuous over 8 h): 1,051 ng/mL | 40 minutes Post-Infusion plasma LD [3]: 1,093 ng/mL | End of Infusion Plasma LD [3]: 1,051 ng/mL | 40 minutes Post-Infusion plasma LD [4]: 691 ng/mL | 100 minutes Post-Infusion plasma LD [4]: 342 ng/mL | 170 minutes Post-Infusion plasma LD [4]: 185 ng/mL | End of Infusion Plasma LD [4]: 679 ng/mL | Plasma LD, 480 minutes after start of infusion (minipig A day 8: 90 mg LDEE (100 mg/mL, pH 3.7), contralateral site, 8 h, hyaluronidase pre-infusion): 679 ng/mL | Plasma LD, 480 minutes after start of infusion (minipig B day 1: 90 mg LDEE (100 mg/mL, pH 3.7) s.c. continuous over 8 h): 1,351 ng/mL | 40 minutes Post-Infusion plasma LD [5]: 1,010 ng/mL | 100 minutes Post-Infusion plasma LD [5]: 686 ng/mL | 170 minutes Post-Infusion plasma LD [5]: 376 ng/mL | End of Infusion Plasma LD [5]: 1,351 ng/mL | Plasma LD, 480 minutes after start of infusion (minipig C day 1: 560 mg LDEE (100 mg/mL, pH 3.7) split between 2 sites, s.c. continuous over 8 h): 11,377 ng/mL | 40 minutes Post-Infusion plasma LD [6]: 11,006 ng/mL | 100 minutes Post-Infusion plasma LD [6]: 6,010 ng/mL | 170 minutes Post-Infusion plasma LD [6]: 5,754 ng/mL | End of Infusion Plasma LD [6]: 11,377 ng/mL | Plasma LD, 480 minutes after start of infusion (minipig C day 8: 280 mg LDEE (100 mg/mL, pH 3.7) at one site, 8 h): 4739 ng/mL | 40 minutes Post-Infusion plasma LD [7]: 4551 ng/mL | 100 minutes Post-Infusion plasma LD [7]: 3357 ng/mL | 170 minutes Post-Infusion plasma LD [7]: 2306 ng/mL | End of Infusion Plasma LD [7]: 4739 ng/mL | Plasma LD, 480 minutes after start of infusion (minipig D day 1: 560 mg LDEE (100 mg/mL, pH 3.7) split between 2 sites, s.c. continuous over 8 h): 15,356 ng/mL | 40 minutes Post-Infusion plasma LD [8]: 17,055 ng/mL | 100 minutes Post-Infusion plasma LD [8]: 9,790 ng/mL | 170 minutes Post-Infusion plasma LD [8]: 6,942 ng/mL | End of Infusion Plasma LD [8]: 15,356 ng/mL | Plasma LD, 480 minutes after start of infusion (minipig D day 8: 560 mg LDEE (100 mg/mL, pH 3.7) re-infused at the 2 day 1 sites, 8 h): 8075 ng/mL | 40 minutes Post-Infusion plasma LD [9]: 8350 ng/mL | 100 minutes Post-Infusion plasma LD [9]: 5928 ng/mL | 170 minutes Post-Infusion plasma LD [9]: 4219 ng/mL | End of Infusion Plasma LD [9]: 8075 ng/mL | increase in plasma LD concentration 40 minutes after cessation of infusion (minipig D, Day 1 infusion): 1,699 ng/mL | 40 minutes Post-Infusion plasma LD [10]: 11,918 ng/mL | 100 minutes Post-Infusion plasma LD [10]: 5,464 ng/mL | 170 minutes Post-Infusion plasma LD [10]: 7,329 ng/mL | End of Infusion Plasma LD [10]: 14,212 ng/mL | Plasma LD, 480 minutes after start of infusion (minipig E day 1: 560 mg LDEE (100 mg/mL, pH 3.7), 2 sites, 8 h, hyaluronidase pre-infusion): 14,212 ng/mL | 40 minutes Post-Infusion plasma LD [11]: 12,310 ng/mL | 100 minutes Post-Infusion plasma LD [11]: 3,046 ng/mL | 170 minutes Post-Infusion plasma LD [11]: 5,903 ng/mL | End of Infusion Plasma LD [11]: 12,982 ng/mL | Plasma LD, 480 minutes after start of infusion (minipig F day 1: 560 mg LDEE (100 mg/mL, pH 3.7), 2 sites, 8 h, hyaluronidase pre-infusion): 12,982 ng/mL | 40 minutes Post-Infusion plasma LD [12]: 8223 ng/mL | 100 minutes Post-Infusion plasma LD [12]: 6231 ng/mL | 170 minutes Post-Infusion plasma LD [12]: 3650 ng/mL | End of Infusion Plasma LD [12]: 8880 ng/mL | Plasma LD, 480 minutes after start of infusion (minipig F day 8: 560 mg LDEE (100 mg/mL, pH 3.7), 2 sites, 8 h, hyaluronidase pre-infusion): 8880 ng/mL | diameter of swelling (infusion site reaction) ([2]; 200 mg/mL (0.89 M) LDEE pH 4.5, 140 mg, intermittent s.c., typically 0.5-1.5 cm): 0.5-4.0 cm | rate of small granuloma formation ([2]; 200 mg/mL (0.89M) LDEE pH 4.5, 140 mg, 14 days post-infusion): 33% | infusion site reactions ([2]; 200 mg/mL (0.89 M) LDEE pH 4.5, 14-15 days post-infusion): 8 out of 24
